The NIST ThermoML archive (doi:10.1016/j.jct.2015.12.025)

Key:
[1] = xn = mol fraction of the nth substance listed; conditions: 102 kPa, Liquid, Vibrating tube method
[2] = refractive index (Na D-line) (dimensionless); xn = mol fraction of the nth substance listed; conditions: 102 kPa, Liquid, Standard Abbe refractometry

C[Si]1(CCC(F)(F)F)O[Si](C)(CCC(F)(F)F)O[Si](C)(CCC(F)(F)F)O1 (stereo not given) + O=[N+]([O-])c1ccccc1
Conditions | mass density, 308.15 K [kg/m3] | mass density, 313.15 K [kg/m3] | mass density, 318.15 K [kg/m3] | mass density, 323.15 K [kg/m3] | refractive index, 308.15 K | refractive index, 313.15 K | refractive index, 318.15 K | refractive index, 323.15 K
[1], x1 = 0.05 | 1199.58 | 1194.53 | 1189.25 | 1184.09 | – | – | – | –
[1], x1 = 0.0999 | 1207.93 | 1202.66 | 1197.26 | 1191.9 | – | – | – | –
[1], x1 = 0.1499 | 1214.25 | 1208.83 | 1203.23 | 1197.73 | – | – | – | –
[1], x1 = 0.1919 | 1218.36 | 1212.79 | 1207.17 | 1201.58 | – | – | – | –
[1], x1 = 0.2499 | 1222.85 | 1217.11 | 1211.37 | 1205.62 | – | – | – | –
[1], x1 = 0.2999 | 1225.81 | 1220.01 | 1214.12 | 1208.26 | – | – | – | –
[1], x1 = 0.3501 | 1228.12 | 1222.19 | 1216.28 | 1210.32 | – | – | – | –
[1], x1 = 0.3999 | 1229.99 | 1224 | 1218.01 | 1211.97 | – | – | – | –
[1], x1 = 0.4499 | 1231.5 | 1225.36 | 1219.29 | 1213.19 | – | – | – | –
[1], x1 = 0.5008 | 1232.67 | 1226.56 | 1220.4 | 1214.21 | – | – | – | –
[1], x1 = 0.55 | 1233.65 | 1227.39 | 1221.21 | 1215 | – | – | – | –
[1], x1 = 0.6001 | 1234.37 | 1228.07 | 1221.84 | 1215.54 | – | – | – | –
[1], x1 = 0.6501 | 1234.9 | 1228.58 | 1222.33 | 1216 | – | – | – | –
[1], x1 = 0.6997 | 1235.32 | 1229.04 | 1222.69 | 1216.31 | – | – | – | –
[1], x1 = 0.75 | 1235.76 | 1229.34 | 1222.98 | 1216.56 | – | – | – | –
[1], x1 = 0.8002 | 1236.01 | 1229.55 | 1223.17 | 1216.72 | – | – | – | –
[1], x1 = 0.8498 | 1236.19 | 1229.72 | 1223.28 | 1216.78 | – | – | – | –
[1], x1 = 0.9002 | 1236.26 | 1229.82 | 1223.34 | 1216.83 | – | – | – | –
[1], x1 = 0.9492 | 1236.47 | 1229.88 | 1223.44 | 1216.88 | – | – | – | –
[1], x1 = 1 | 1236.63 | 1230.05 | 1223.55 | 1216.99 | – | – | – | –
[2], x1 = 0.05 | – | – | – | – | 1.51601 | 1.51362 | 1.51123 | 1.50882
[2], x1 = 0.0999 | – | – | – | – | 1.49288 | 1.49054 | 1.48816 | 1.48586
[2], x1 = 0.1499 | – | – | – | – | 1.47398 | 1.47168 | 1.46935 | 1.46705
[2], x1 = 0.1919 | – | – | – | – | 1.46058 | 1.4583 | 1.45605 | 1.45377
[2], x1 = 0.2499 | – | – | – | – | 1.44494 | 1.4427 | 1.44048 | 1.43827
[2], x1 = 0.2999 | – | – | – | – | 1.43355 | 1.43137 | 1.42916 | 1.42695
[2], x1 = 0.3501 | – | – | – | – | 1.42369 | 1.42151 | 1.41931 | 1.41713
[2], x1 = 0.3999 | – | – | – | – | 1.41513 | 1.41296 | 1.41082 | 1.40865
[2], x1 = 0.4499 | – | – | – | – | 1.40755 | 1.4054 | 1.40325 | 1.40109
[2], x1 = 0.5008 | – | – | – | – | 1.4007 | 1.39858 | 1.39644 | 1.39433
[2], x1 = 0.55 | – | – | – | – | 1.39478 | 1.3927 | 1.39053 | 1.38845
[2], x1 = 0.6001 | – | – | – | – | 1.38938 | 1.38728 | 1.38519 | 1.3831
[2], x1 = 0.6501 | – | – | – | – | 1.38448 | 1.38239 | 1.38032 | 1.37824
[2], x1 = 0.6997 | – | – | – | – | 1.38006 | 1.378 | 1.37594 | 1.37384
[2], x1 = 0.75 | – | – | – | – | 1.376 | 1.37391 | 1.37188 | 1.36984
[2], x1 = 0.8002 | – | – | – | – | 1.37227 | 1.37021 | 1.36817 | 1.36612
[2], x1 = 0.8498 | – | – | – | – | 1.36887 | 1.36681 | 1.36478 | 1.36274
[2], x1 = 0.9002 | – | – | – | – | 1.36567 | 1.36365 | 1.36163 | 1.35959
[2], x1 = 0.9492 | – | – | – | – | 1.36284 | 1.36084 | 1.35878 | 1.35679
[2], x1 = 1 | – | – | – | – | 1.36011 | 1.35808 | 1.35609 | 1.35407

CC(C)(C)c1ccccc1 [(1,1-dimethylethyl)benzene] + C[Si]1(CCC(F)(F)F)O[Si](C)(CCC(F)(F)F)O[Si](C)(CCC(F)(F)F)O1
Conditions | mass density, 308.15 K [kg/m3] | mass density, 313.15 K [kg/m3] | mass density, 318.15 K [kg/m3] | mass density, 323.15 K [kg/m3] | refractive index, 308.15 K | refractive index, 313.15 K | refractive index, 318.15 K | refractive index, 323.15 K
[1], x2 = 0 | 854.12 | 849.98 | 845.87 | 841.72 | – | – | – | –
[1], x2 = 0.0476 | 894.32 | 889.93 | 885.61 | 881.21 | – | – | – | –
[1], x2 = 0.1 | 933.32 | 928.72 | 924.21 | 919.56 | – | – | – | –
[1], x2 = 0.15 | 966.19 | 961.47 | 956.76 | 951.94 | – | – | – | –
[1], x2 = 0.2 | 995.76 | 990.72 | 985.86 | 980.83 | – | – | – | –
[1], x2 = 0.25 | 1022.23 | 1017.01 | 1012 | 1006.81 | – | – | – | –
[1], x2 = 0.2999 | 1046.09 | 1040.82 | 1035.68 | 1030.38 | – | – | – | –
[1], x2 = 0.3499 | 1067.85 | 1062.39 | 1057.13 | 1051.7 | – | – | – | –
[1], x2 = 0.3999 | 1087.64 | 1082.11 | 1076.69 | 1071.16 | – | – | – | –
[1], x2 = 0.45 | 1105.84 | 1100.2 | 1094.66 | 1089.02 | – | – | – | –
[1], x2 = 0.5 | 1122.55 | 1116.79 | 1111.16 | 1105.4 | – | – | – | –
[1], x2 = 0.5498 | 1137.88 | 1132.05 | 1126.36 | 1120.47 | – | – | – | –
[1], x2 = 0.6 | 1152.22 | 1146.28 | 1140.41 | 1134.47 | – | – | – | –
[1], x2 = 0.6499 | 1165.5 | 1159.37 | 1153.46 | 1147.45 | – | – | – | –
[1], x2 = 0.7001 | 1177.76 | 1171.65 | 1165.58 | 1159.5 | – | – | – | –
[1], x2 = 0.75 | 1189.19 | 1183.03 | 1176.83 | 1170.74 | – | – | – | –
[1], x2 = 0.7995 | 1199.87 | 1193.61 | 1187.3 | 1181.13 | – | – | – | –
[1], x2 = 0.8499 | 1209.99 | 1203.62 | 1197.27 | 1190.93 | – | – | – | –
[1], x2 = 0.8954 | 1218.66 | 1212.17 | 1205.76 | 1199.34 | – | – | – | –
[1], x2 = 0.9485 | 1228.1 | 1221.55 | 1215.06 | 1208.56 | – | – | – | –
[2], x2 = 0 | – | – | – | – | 1.48509 | 1.48256 | 1.48007 | 1.47754
[2], x2 = 0.0476 | – | – | – | – | 1.47051 | 1.46805 | 1.4656 | 1.46312
[2], x2 = 0.1 | – | – | – | – | 1.45684 | 1.45441 | 1.452 | 1.4496
[2], x2 = 0.15 | – | – | – | – | 1.44555 | 1.44313 | 1.44079 | 1.4384
[2], x2 = 0.2 | – | – | – | – | 1.4356 | 1.43327 | 1.43091 | 1.42856
[2], x2 = 0.25 | – | – | – | – | 1.42681 | 1.4245 | 1.42218 | 1.41985
[2], x2 = 0.2999 | – | – | – | – | 1.41901 | 1.41671 | 1.41444 | 1.41212
[2], x2 = 0.3499 | – | – | – | – | 1.41199 | 1.40972 | 1.40747 | 1.40521
[2], x2 = 0.3999 | – | – | – | – | 1.40568 | 1.40344 | 1.4012 | 1.39899
[2], x2 = 0.45 | – | – | – | – | 1.39992 | 1.3977 | 1.39552 | 1.3933
[2], x2 = 0.5 | – | – | – | – | 1.39466 | 1.39251 | 1.39033 | 1.38813
[2], x2 = 0.5498 | – | – | – | – | 1.38992 | 1.38774 | 1.38566 | 1.3834
[2], x2 = 0.6 | – | – | – | – | 1.38555 | 1.38337 | 1.38127 | 1.37906
[2], x2 = 0.6499 | – | – | – | – | 1.38151 | 1.37934 | 1.37726 | 1.37512
[2], x2 = 0.7001 | – | – | – | – | 1.37773 | 1.37562 | 1.37352 | 1.37141
[2], x2 = 0.75 | – | – | – | – | 1.37427 | 1.3722 | 1.3701 | 1.36801
[2], x2 = 0.7995 | – | – | – | – | 1.37106 | 1.36902 | 1.36693 | 1.36485
[2], x2 = 0.8499 | – | – | – | – | 1.36804 | 1.36599 | 1.36394 | 1.36193
[2], x2 = 0.8954 | – | – | – | – | 1.36548 | 1.36342 | 1.36142 | 1.35939
[2], x2 = 0.9485 | – | – | – | – | 1.36268 | 1.36065 | 1.35863 | 1.35667
